Drawing on ChEMBL document CHEMBL1833838, “Pancreatic anticancer activity of a novel geranylgeranylated coumarin derivative” (2011), this text covers Activity for 6 molecules.

The subject of assay [1] is PANC-1. The experiment in a line: Cytotoxicity against human PANC1 cells in nutrient-deprived condition assessed as cell death at 100 uM after 24 hrs by WST-8 assay. The assay is classed as functional.
The subject of assay [2] is PANC-1. The experiment in a line: Cytotoxicity against human PANC1 cells in nutrient-deprived condition assessed as cell death at 6.25 uM after 24 hrs by WST-8 assay. The assay is classed as functional.
Assay [3] has as its system PANC-1. Kind of assay: Induction of apoptosis in human PANC1 cells in nutrient-deprived condition assessed as morphological changes at 3.125 to 12.5 uM up to 24 hrs by microscopy. It is filed as functional, cell-based.
Assay [4] has as its system PANC-1. Kind of assay: Cytotoxicity against human PANC1 cells in nutrient-deprived condition at 0.01 ug/mL after 24 hrs by WST-8 assay. The assay is classed as functional, cell-based.
Assay [5] has as its system PANC-1. The experiment in a line: Cytotoxicity against human PANC1 cells in nutrient-deprived condition assessed as cell death at 200 uM after 24 hrs by WST-8 assay. The assay is classed as functional.

The source made the active and inactive calls. The calls are words filed in the database; no cut-off is given here.

For the molecule `CC(C)=CCC/C(C)=C/CC/C(C)=C/COc1cc2ccccc2oc1=O`, in assay [1], the outcome was Active.

In the case of `CC(C)=CCOc1ccc2ccc(=O)oc2c1` [7-PRENYLOXYCOUMARIN], in assay [1], the Activity amounted to 100%.

In the case of `CC(C)=CCC/C(C)=C/CC/C(C)=C/CC/C(C)=C/COc1ccc2ccc(=O)oc2c1`, the result in assay [1] and in assay [3] was Active. The Activity in assay [2] amounted to 100%.

With `CC(C)(OC(=O)/C=C/c1ccc(O)cc1)[C@@H]1Cc2c(ccc3ccc(=O)oc23)O1`, in assay [4], the outcome was Active.

For the molecule `CC(C)=CCC/C(C)=C/COc1ccc2ccc(=O)oc2c1`, in assay [1], the result was Active.

As to `O=c1ccc2ccc(OC3CCCC3)cc2o1`, the Activity in assay [5] was determined as 100%.
